Assay results published in patent US20080262017A1, “Sugar-Free Storage-Stable Antihistaminic Syrups” (priority 2006, published 2008).
Read-outs that look alike come from different tables or passages of the source.

Key:
[1] = Example 1 formulation; throughout the 18 month stability interval
Protocol: (§1) Three batches of the exemplary formulation detailed in Example 1 were manufactured (referred to herein as Batches A, B, and C) and packaged in two different sizes of amber glass bottles (120 mL and 15 mL).

Sodium benzoate assay = format: physicochemical; settings: Example 1 formulation; throughout the 18 month stability interval
Protocol: as §1

[2] = Desloratadine stability (assay, regression analysis); format: physicochemical; settings: Example 1 formulation, regression analysis of data through 18 months
Protocol: Data obtained through 18 months at 25° C./60% RH and 30° C./65% RH were evaluated by regression analysis in order to determine a suitable shelf life (see FIGS. 2A and 2B).

[3] = cited from earlier work

## O=C([O-])CN(CCN(CC(=O)[O-])CC(=O)O)CC(=O)O.[Na+].[Na+] [EDTA, Edetate Disodium]
[1]
  EDTA assay trend: no degradation trend

## O=C([O-])c1ccccc1.[Na+] [sodium benzoate]
Sodium benzoate assay
  sodium benzoate assay trend: no degradation trend

## Clc1ccc2c(c1)CCc1cccnc1C2=C1CCNCC1 [Desloratadine, 8-chloro-6,11-dihydro-11-(4-piperidinylidene)-5H-benzo[5,6]cyclohepta[1,2-b]pyridine]
[2]; stored at 25° C./60% RH
  predicted desloratadine assay value over a 24 month shelf life: 100.9%
[2]; stored at 30° C./65% RH
  predicted desloratadine assay value over a 24 month shelf life: 98.9%
[3]; in ethanol
  solubility: very soluble
[3]; in propylene glycol
  solubility: very soluble
[3]; in water
  solubility: slightly soluble
